Laboratory results reported in patent US20150038430A1, “THERAPEUTIC PEPTIDOMIMETIC MACROCYCLES” (AILERON Therapeutics, Inc., priority 2008, published 2015).
Numbered stars: 1 amine (or outer) side, 2 acyl side, 3 side chain; on linkers, the order of the positions; unused ones are H or OH. Bridge positions count the residues as written; N and C are the ends. Square brackets hold non-standard residues; d marks the D form. Peptide text beside a SMILES is read from it. * marks the point of attachment. ξ: configuration not given here. ξαMeNle(6-ylidene) = CC(CCCC=[*:3])(N[*:1])C(=O)[*:2]; Nle = CCCC[C@H](N)C(=O)O; Aib = CC(C)(N)C(=O)O; Propionyl = CCC(=O)*

What was measured:
NCI-H82 (SCLC-MCL1+) = assay type: cell-based, human; conditions: 24 h
Description: (§1) Cell viability assays shown in FIGS. 34-52 were performed according to a similar protocol. Cells were split at optimal cell density a day prior to the initiation of the study. The next day, cells were washed twice in serum-free Opti-MEM media and 4000 cells/well were added to each well in a final volume of […] Opti-MEM. For serum-free experiments, macrocycles were diluted from 2 mM stocks (100% DMSO) in sterile water to prepare 400 μM working solutions. A 40 μM solution was then generated by ten-fold dilution in assay buffer. The macrocycle and controls were then serially diluted two-fold in assay buffer in dosing plates to provide concentrations between 1.2 and 40 μM, respectively. For experiments in 2% human serum, macrocycles were diluted from 10 mM stocks (100% DMSO) in sterile water to prepare 1 mM working solutions. A 100 μM solution was generated by ten-fold dilution in assay buffer. The macrocycles and controls were then serially diluted two-fold in assay buffer in dosing plates to provide concentrations between 3 and 100 μM, respectively. 50 μl of each dilution was then added to the appropriate wells of the test plate to achieve final concentrations of the macrocycle between 0.6 to 20 μM (for serum free experiment) or 1.5 to 50 μM (for 2% serum experiment), respectively. Controls included wells without macrocycles containing the same concentration of DMSO as the macrocycle-containing wells, wells containing 0.1% Triton X-100, and wells containing no cells. Plates were incubated for 24 hours at 37° C. in a humidified 5% CO2 atmosphere. At the end of a 24 hr incubation period, a CellTiter-Glo Luminescent Cell Viability Assay was performed according to manufacturer's instructions (Promega, catalog #G7571) and the luminescence was measured using a BIO-TEK synergy HT Plate reader. Values were plotted as percent viable, i.e. as a percentage of the negative control value (derived from cells exposed to DMSO only). All assays were performed in duplicate.
(§2) The following tables summarize the EC50 values (μM) observed with peptidomimetic macrocycles of the invention in various cell lines: […]

MDA-MB231-Met = assay type: cell-based, human; conditions: 24 h
Description: as §1, §2

A375 = assay type: cell-based, human; conditions: 24 h
Description: as §1, §2

OVCAR8 = assay type: cell-based, human; conditions: 24 h
Description: as §1, §2

Jurkat = assay type: cell-based, human; conditions: 24 h
Description: as §1, §2

PC3 = assay type: cell-based, human; conditions: 24 h
Description: as §1, §2

DHL-6 = assay type: cell-based, human; conditions: 24 h
Description: as §1, §2

Molt-4 = assay type: cell-based, human; conditions: 24 h
Description: as §1, §2

SEMK2 = assay type: cell-based, human; conditions: 24 h
Description: as §1, §2

Raji = assay type: cell-based, human; conditions: 24 h
Description: as §1, §2

RS4;11 = assay type: cell-based, human; conditions: 24 h
Description: as §1, §2

MM1S = assay type: cell-based, human; conditions: 24 h
Description: as §1, §2

Bcl-xL = Bcl-xL (Homo sapiens, UniProt Q07817); experiment: Kd, μM | Bcl-xL
Excerpt: (§3) Table printed on a drawing sheet, Figure 27
Head of the field: Kd, μM | Bcl-xL
Where the first naming reader finds the target: head: Kd, μM | Bcl-xL

Mcl-1 = experiment: Kd, μM | Mcl-1
Excerpt: as §3
Head of the field: Kd, μM | Mcl-1
First copying reader's note: The last row (ABT-737) is a small-molecule comparator; the three plots above the table are not copied.
Where the first naming reader finds the target: head: Kd, μM | Mcl-1

Bcl-xL, sequence (Q07817 whole entry, looked up): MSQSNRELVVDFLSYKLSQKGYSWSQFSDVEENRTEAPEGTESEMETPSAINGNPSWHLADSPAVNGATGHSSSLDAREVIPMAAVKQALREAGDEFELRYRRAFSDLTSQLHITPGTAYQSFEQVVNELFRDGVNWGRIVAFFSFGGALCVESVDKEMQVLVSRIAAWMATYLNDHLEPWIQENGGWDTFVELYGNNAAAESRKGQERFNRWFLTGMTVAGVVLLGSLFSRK

Row | Structure (SMILES) | EC50 (NCI-H82 (SCLC-MCL1+)) | EC50 (MDA-MB231-Met) | EC50 (A375) | EC50 (OVCAR8) | EC50 (Jurkat) | EC50 (PC3) | EC50 (DHL-6) | EC50 (Molt-4) | EC50 (SEMK2) | EC50 (Raji) | EC50 (RS4;11) | EC50 (MM1S) | Kd (Bcl-xL) | Kd (Mcl-1)
1 | CC[C@H](C)[C@H](NC(C)=O)C(=O)N[C@@H](Cc1c[nH]c2ccccc12)C(=O)N[C@H](C(=O)N[C@@H](C)C(=O)N[C@@H](CCC(N)=O)C(=O)N[C@@H](C)C(=O)N[C@@H](C)C(=O)N[C@@H](CCCNC(=N)N)C(=O)NC1(C)CCCC=CCCCC(C)(C(=O)N[C@@H](C)C(=O)N[C@@H](CC(N)=O)C(=O)N[C@@H](C)C(=O)N[C@@H](Cc2ccc(O)cc2)C(=O)N[C@@H](Cc2ccc(O)cc2)C(=O)N[C@@H](C)C(=O)N[C@@H](CCCNC(=N)N)C(=O)N[C@@H](CCCNC(=N)N)C(N)=O)NC(=O)CNC(=O)[C@H]([C@@H](C)CC)NC(=O)[C@H](CC(=O)O)NC1=O)[C@@H](C)CC (some centres unmarked) [SP-24] (Ac-IWIAQAAR[ξαMeNle(6-ylidene)]DIG[ξαMeNle(6-ylidene)]ANAYYARR-NH2; staple 9-13) | > 20000 nM | > 20000 nM | > 20000 nM | > 20000 nM | > 20000 nM | > 20000 nM |  |  |  |  |  |  |  | 
2 | CCC(=O)N[C@@H](CCCNC(=N)N)C(=O)N[C@@H](CC(N)=O)C(=O)N[C@H](C(=O)N[C@@H](C)C(=O)N[C@@H](CCCNC(=N)N)C(=O)N[C@@H](Cc1c[nH]cn1)C(=O)N[C@@H](CC(C)C)C(=O)N[C@@H](C)C(=O)NC1(C)CCCC=CCCCC(C)(C(=O)N[C@@H](Cc2ccccc2)C(=O)N[C@@H](C)C(=O)N[C@@H](CCCNC(=N)N)C(=O)N[C@@H](CO)C(=O)N[C@H](C(N)=O)[C@@H](C)CC)NC(=O)[C@H](CC(=O)O)NC(=O)C(C)(C)NC(=O)[C@H](C(C)C)NC1=O)[C@@H](C)CC (some centres unmarked) [SP-9] (Propionyl-RNIARHLA[ξαMeNle(6-ylidene)]V[Aib]D[ξαMeNle(6-ylidene)]FARSI-NH2; staple 9-13) | 4200 nM | 2900 nM | 4100 nM | 7100 nM | 1900 nM | 5700 nM | 2700 nM | 1000 nM | 8100 nM | 5700 nM | 4300 nM | 5500 nM |  | 
3 | CC[C@H](C)[C@H](NC(=O)[C@H](Cc1c[nH]c2ccccc12)NC(=O)[C@H](CCCNC(=N)N)NC(C)=O)C(=O)N[C@@H](C)C(=O)N[C@@H](CCC(N)=O)C(=O)N[C@@H](C)C(=O)N[C@@H](CC(C)C)C(=O)N[C@@H](CCCNC(=N)N)C(=O)NC1(C)CCCC=CCCCC(C)(C(=O)N[C@@H](Cc2ccccc2)C(=O)N[C@@H](CC(N)=O)C(=O)N[C@@H](C)C(=O)N[C@@H](Cc2ccccc2)C(=O)N[C@@H](Cc2ccc(O)cc2)C(=O)N[C@@H](C)C(=O)N[C@@H](CCCNC(=N)N)C(=O)N[C@@H](CCCNC(=N)N)C(N)=O)NC(=O)[C@H](CC(=O)O)NC(=O)CNC(=O)[C@H]([C@@H](C)CC)NC1=O (some centres unmarked) [SP-15] (Ac-RWIAQALR[ξαMeNle(6-ylidene)]IGD[ξαMeNle(6-ylidene)]FNAFYARR-NH2; staple 9-13) |  | 900 nM | 800 nM | 1800 nM | 400 nM | 2100 nM | 500 nM | 700 nM | 800 nM | 1000 nM | 1700 nM | 600 nM |  | 
4 | CCCC[C@H](NC(=O)C1(C)CCCC=CCCCC(C)(NC(=O)[C@H](C)NC(=O)[C@H](CC(C)C)NC(=O)[C@H](Cc2c[nH]cn2)NC(=O)[C@H](CCCNC(=N)N)NC(=O)[C@H](C)NC(=O)[C@@H](NC(=O)[C@H](CC(N)=O)NC(=O)[C@H](CCCNC(=N)N)NC(=O)CC)[C@@H](C)CC)C(=O)N[C@@H](C(C)C)C(=O)NCC(=O)N[C@@H](CC(=O)O)C(=O)N1)C(=O)NC(C)(C)C(=O)N[C@@H](CCCNC(=N)N)C(=O)N[C@@H](CO)C(=O)N[C@H](C(N)=O)[C@@H](C)CC (some centres unmarked) [SP-10] (Propionyl-RNIARHLA[ξαMeNle(6-ylidene)]VGD[ξαMeNle(6-ylidene)][Nle][Aib]RSI-NH2; staple 9-13) | 5700 nM | 3100 nM | 5200 nM | 8100 nM | 1900 nM | 6000 nM | 1900 nM | 1900 nM | 8200 nM | 5000 nM | 3500 nM | 2500 nM |  | 
5 | CC[C@H](C)[C@H](NC(=O)[C@H](Cc1c[nH]c2ccccc12)NC(=O)[C@H](CCCNC(=N)N)NC(C)=O)C(=O)N[C@@H](C)C(=O)N[C@@H](CCC(N)=O)C(=O)N[C@@H](C)C(=O)N[C@@H](CC(C)C)C(=O)N[C@@H](CCCNC(=N)N)C(=O)NC1(C)CCCC=CCCCC(C)(C(=O)N[C@@H](Cc2ccccc2)C(=O)N[C@@H](CC(N)=O)C(=O)N[C@@H](C)C(=O)N[C@@H](Cc2ccc(O)cc2)C(=O)N[C@@H](Cc2ccc(O)cc2)C(=O)N[C@@H](C)C(=O)N[C@@H](CCCNC(=N)N)C(=O)N[C@@H](CCCNC(=N)N)C(N)=O)NC(=O)[C@H](CC(N)=O)NC(=O)CNC(=O)[C@H]([C@@H](C)CC)NC1=O (some centres unmarked) [SP-23] (Ac-RWIAQALR[ξαMeNle(6-ylidene)]IGN[ξαMeNle(6-ylidene)]FNAYYARR-NH2; staple 9-13) | 600 nM | 600 nM | 1000 nM | 900 nM | 900 nM | 2000 nM | 500 nM | 600 nM | 1000 nM | 1800 nM | 1000 nM | 700 nM |  | 
6 | CC[C@H](C)[C@H](NC(C)=O)C(=O)N[C@@H](Cc1c[nH]c2ccccc12)C(=O)N[C@H](C(=O)N[C@@H](C)C(=O)N[C@@H](CCC(N)=O)C(=O)N[C@@H](C)C(=O)N[C@@H](CC(C)C)C(=O)N[C@@H](CCCNC(=N)N)C(=O)NC1(C)CCCC=CCCCC(C)(C(=O)N[C@@H](Cc2ccccc2)C(=O)N[C@@H](CC(N)=O)C(=O)N[C@@H](C)C(=O)N[C@@H](Cc2ccc(O)cc2)C(=O)N[C@@H](Cc2ccc(O)cc2)C(=O)N[C@@H](C)C(=O)N[C@@H](CCCNC(=N)N)C(=O)N[C@@H](CCCNC(=N)N)C(N)=O)NC(=O)[C@H](CC(N)=O)NC(=O)CNC(=O)[C@H]([C@@H](C)CC)NC1=O)[C@@H](C)CC (some centres unmarked) [SP-25] (Ac-IWIAQALR[ξαMeNle(6-ylidene)]IGN[ξαMeNle(6-ylidene)]FNAYYARR-NH2; staple 9-13) | 500 nM | 1000 nM | 1000 nM | 1400 nM | 500 nM | 600 nM | 600 nM | 900 nM | 900 nM | 1800 nM | 1000 nM | 600 nM |  | 
7 | CCCC[C@@H]1NC(=O)CNC(=O)[C@H]([C@@H](C)CC)NC(=O)C(C)(NC(=O)[C@H](CCCNC(=N)N)NC(=O)[C@H](CC(C)C)NC(=O)[C@H](C)NC(=O)[C@H](CCC(N)=O)NC(=O)[C@H](C)NC(=O)[C@@H](NC(=O)[C@H](Cc2c[nH]c3ccccc23)NC(=O)[C@H](CCCNC(=N)N)NC(C)=O)[C@@H](C)CC)CCCC=CCCCC(C)(C(=O)N[C@@H](Cc2ccccc2)C(=O)N[C@@H](CC(N)=O)C(=O)N[C@@H](C)C(=O)N[C@@H](Cc2ccc(O)cc2)C(=O)N[C@@H](Cc2ccc(O)cc2)C(=O)N[C@@H](C)C(=O)N[C@@H](CCCNC(=N)N)C(=O)N[C@@H](CCCNC(=N)N)C(N)=O)NC1=O (some centres unmarked) [SP-12] (Ac-RWIAQALR[ξαMeNle(6-ylidene)]IG[Nle][ξαMeNle(6-ylidene)]FNAYYARR-NH2; staple 9-13) | 900 nM | 500 nM | 700 nM | 700 nM | 400 nM | 1900 nM |  | 700 nM | 500 nM | 300 nM | 1710 nM |  | 0.19 µM | 2.5 µM
